Results as given in ChEMBL document CHEMBL1201862, “PubChem BioAssay data set” (2004).
Calls of active or inactive are those of the source. The rule behind the calls is not given here.

Key:
Assay type in all cases: functional
[1] = molecular target: Serine/threonine-protein kinase pim-1 (Homo sapiens, UniProt P11309)
[2] = molecular target: ALK tyrosine kinase receptor (Homo sapiens, UniProt Q9UM73);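 note: ALK tested as one member of a kinase panel screen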
[3] = molecular target: Cyclin-dependent kinase 8 (Homo sapiens, UniProt P49336); test: Navigating the Kinome. Panel member name: CDK8
Sequence of Cyclin-dependent kinase 8 (P49336 whole entry): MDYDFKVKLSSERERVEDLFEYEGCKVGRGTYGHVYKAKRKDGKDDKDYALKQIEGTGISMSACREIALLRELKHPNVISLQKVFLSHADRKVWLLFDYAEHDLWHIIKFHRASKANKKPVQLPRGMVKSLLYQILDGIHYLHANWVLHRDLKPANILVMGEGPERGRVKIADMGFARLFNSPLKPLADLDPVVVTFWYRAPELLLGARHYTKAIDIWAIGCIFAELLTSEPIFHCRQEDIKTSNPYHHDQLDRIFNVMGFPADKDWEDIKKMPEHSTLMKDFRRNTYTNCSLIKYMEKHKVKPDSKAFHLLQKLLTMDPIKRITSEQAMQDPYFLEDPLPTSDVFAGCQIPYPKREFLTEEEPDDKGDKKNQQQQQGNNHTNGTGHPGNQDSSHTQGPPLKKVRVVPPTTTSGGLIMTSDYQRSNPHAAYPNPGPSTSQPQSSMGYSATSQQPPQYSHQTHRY

[4] = molecular target: T1, Tyrosine-protein kinase JAK3 (Homo sapiens, UniProt P52333)
T1 sequence (P52333 whole entry): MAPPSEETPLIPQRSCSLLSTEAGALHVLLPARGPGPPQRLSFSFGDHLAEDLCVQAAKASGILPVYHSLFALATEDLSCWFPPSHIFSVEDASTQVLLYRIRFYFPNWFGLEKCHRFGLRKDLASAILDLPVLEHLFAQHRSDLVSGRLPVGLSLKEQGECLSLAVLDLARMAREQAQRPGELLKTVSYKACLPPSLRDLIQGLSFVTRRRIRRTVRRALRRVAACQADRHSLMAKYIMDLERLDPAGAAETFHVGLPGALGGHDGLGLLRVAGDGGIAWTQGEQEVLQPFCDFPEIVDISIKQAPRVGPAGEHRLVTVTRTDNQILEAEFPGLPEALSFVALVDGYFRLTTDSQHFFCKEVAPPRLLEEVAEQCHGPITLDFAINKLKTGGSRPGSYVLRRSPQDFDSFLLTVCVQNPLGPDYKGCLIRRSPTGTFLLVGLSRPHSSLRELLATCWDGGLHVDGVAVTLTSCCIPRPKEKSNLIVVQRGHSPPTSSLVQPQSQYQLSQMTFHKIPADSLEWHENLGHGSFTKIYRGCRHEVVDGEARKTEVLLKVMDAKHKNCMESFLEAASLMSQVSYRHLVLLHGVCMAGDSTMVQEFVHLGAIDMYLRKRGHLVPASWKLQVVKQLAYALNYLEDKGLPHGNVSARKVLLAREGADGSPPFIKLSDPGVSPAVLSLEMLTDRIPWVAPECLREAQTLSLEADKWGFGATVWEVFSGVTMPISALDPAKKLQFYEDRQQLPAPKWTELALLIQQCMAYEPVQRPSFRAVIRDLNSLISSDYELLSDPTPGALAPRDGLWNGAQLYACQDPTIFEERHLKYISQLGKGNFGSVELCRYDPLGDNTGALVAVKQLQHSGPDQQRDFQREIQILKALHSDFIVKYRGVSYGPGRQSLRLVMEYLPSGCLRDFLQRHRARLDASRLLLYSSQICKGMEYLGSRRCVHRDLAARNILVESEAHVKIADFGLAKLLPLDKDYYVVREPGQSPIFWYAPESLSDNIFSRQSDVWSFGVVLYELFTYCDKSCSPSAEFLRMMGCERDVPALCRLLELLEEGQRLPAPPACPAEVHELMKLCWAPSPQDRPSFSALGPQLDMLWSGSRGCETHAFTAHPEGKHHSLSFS

[5] = molecular target: Mitogen-activated protein kinase 8 (Homo sapiens, UniProt P45983);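 note: value comes from one member of a kinome-wide kinase profiling panel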
Sequence of Mitogen-activated protein kinase 8 (P45983 whole entry): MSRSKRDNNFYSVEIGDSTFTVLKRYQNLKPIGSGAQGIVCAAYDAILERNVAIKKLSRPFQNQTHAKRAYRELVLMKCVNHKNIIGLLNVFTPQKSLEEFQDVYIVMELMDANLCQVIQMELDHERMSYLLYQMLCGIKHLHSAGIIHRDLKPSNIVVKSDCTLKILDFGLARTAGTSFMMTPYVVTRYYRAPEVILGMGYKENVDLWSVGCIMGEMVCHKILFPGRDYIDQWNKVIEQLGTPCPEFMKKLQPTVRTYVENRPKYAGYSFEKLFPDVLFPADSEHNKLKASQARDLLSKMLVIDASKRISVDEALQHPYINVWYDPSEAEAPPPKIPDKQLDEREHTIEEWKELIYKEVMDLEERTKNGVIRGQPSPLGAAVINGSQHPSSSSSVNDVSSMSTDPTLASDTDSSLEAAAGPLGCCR

[6] = molecular target: T2, Serine/threonine-protein kinase TAO1 (Homo sapiens, UniProt Q7L7X3)
T2 sequence (Q7L7X3 whole entry): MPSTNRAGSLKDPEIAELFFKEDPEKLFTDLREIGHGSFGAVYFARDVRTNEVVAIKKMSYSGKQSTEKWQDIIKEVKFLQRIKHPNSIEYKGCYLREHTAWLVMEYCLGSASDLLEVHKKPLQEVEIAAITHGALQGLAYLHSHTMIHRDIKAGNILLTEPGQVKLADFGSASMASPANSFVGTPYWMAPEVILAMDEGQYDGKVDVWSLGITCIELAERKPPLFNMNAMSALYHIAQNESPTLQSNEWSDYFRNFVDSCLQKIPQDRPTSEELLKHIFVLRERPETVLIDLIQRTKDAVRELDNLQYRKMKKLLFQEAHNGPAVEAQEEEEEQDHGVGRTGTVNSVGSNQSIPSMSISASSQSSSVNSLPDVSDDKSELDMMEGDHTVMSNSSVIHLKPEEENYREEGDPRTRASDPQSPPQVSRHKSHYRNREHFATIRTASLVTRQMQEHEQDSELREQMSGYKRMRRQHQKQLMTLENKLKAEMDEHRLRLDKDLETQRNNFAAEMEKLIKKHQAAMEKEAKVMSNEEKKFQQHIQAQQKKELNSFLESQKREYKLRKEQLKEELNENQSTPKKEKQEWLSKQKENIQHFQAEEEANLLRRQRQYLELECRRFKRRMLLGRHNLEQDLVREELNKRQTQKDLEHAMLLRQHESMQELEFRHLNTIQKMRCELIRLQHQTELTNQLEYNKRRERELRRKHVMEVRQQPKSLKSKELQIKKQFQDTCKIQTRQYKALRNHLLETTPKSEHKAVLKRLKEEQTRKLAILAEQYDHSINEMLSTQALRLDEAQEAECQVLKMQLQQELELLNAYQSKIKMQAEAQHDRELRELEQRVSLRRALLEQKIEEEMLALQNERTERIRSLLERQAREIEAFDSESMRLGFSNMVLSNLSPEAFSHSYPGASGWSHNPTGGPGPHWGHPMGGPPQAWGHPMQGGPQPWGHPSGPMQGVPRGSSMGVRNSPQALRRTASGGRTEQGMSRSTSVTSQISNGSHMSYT

[7] = molecular target: Death-associated protein kinase 3 (Homo sapiens, UniProt O43293);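 note: measured as one member of a kinome-wide profiling panel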
Sequence of Death-associated protein kinase 3 (O43293 whole entry): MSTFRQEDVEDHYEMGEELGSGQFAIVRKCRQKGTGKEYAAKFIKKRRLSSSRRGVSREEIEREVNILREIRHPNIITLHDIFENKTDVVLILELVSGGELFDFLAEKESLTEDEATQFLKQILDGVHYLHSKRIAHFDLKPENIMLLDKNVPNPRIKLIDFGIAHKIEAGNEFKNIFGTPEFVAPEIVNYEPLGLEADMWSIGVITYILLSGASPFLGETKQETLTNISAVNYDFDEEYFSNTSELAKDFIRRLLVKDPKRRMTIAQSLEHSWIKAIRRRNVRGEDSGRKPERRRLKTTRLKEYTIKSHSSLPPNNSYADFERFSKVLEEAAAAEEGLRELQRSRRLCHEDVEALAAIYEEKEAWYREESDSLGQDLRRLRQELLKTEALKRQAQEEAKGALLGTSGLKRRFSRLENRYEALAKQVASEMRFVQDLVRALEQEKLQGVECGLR

[8] = molecular target: Rho-associated protein kinase 1 (Homo sapiens, UniProt Q13464);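 note: measured within a broad kinome-wide panel profiling many kinases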
Sequence of Rho-associated protein kinase 1 (Q13464 whole entry): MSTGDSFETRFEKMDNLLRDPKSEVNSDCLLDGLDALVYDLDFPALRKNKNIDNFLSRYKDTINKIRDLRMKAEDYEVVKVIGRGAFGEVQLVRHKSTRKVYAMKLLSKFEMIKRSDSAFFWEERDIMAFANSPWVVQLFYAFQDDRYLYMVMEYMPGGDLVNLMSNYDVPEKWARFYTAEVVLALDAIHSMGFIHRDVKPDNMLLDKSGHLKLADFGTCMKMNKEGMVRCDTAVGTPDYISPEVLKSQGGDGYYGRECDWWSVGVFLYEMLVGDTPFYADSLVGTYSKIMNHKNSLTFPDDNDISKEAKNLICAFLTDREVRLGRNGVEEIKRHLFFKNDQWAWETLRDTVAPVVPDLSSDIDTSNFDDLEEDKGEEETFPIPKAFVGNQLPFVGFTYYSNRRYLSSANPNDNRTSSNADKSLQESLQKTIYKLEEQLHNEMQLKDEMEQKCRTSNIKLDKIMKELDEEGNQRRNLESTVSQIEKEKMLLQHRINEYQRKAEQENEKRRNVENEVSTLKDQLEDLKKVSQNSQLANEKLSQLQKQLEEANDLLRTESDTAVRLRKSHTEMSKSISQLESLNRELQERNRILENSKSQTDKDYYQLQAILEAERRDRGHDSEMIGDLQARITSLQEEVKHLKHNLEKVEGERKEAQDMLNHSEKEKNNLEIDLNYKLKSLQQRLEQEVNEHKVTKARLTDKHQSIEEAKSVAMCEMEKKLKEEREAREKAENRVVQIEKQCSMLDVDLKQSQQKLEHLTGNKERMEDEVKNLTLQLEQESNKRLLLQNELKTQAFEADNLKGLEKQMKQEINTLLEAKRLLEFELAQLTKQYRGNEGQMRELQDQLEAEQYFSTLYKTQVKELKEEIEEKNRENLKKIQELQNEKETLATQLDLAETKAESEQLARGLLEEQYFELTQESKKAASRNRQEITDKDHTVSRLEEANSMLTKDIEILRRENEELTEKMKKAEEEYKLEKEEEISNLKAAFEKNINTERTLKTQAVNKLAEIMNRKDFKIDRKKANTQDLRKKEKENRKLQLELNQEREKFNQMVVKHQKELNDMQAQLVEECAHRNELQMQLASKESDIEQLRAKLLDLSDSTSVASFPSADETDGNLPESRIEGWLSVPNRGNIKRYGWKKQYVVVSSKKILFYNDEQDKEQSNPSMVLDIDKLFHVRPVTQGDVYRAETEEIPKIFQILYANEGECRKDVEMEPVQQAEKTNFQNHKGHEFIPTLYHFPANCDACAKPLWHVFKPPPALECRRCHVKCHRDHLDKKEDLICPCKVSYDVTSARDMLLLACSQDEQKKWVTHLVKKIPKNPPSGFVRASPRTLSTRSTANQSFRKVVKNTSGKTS

[9] = molecular target: Tyrosine-protein kinase Fyn (Homo sapiens, UniProt P06241)

Sequence of Serine/threonine-protein kinase pim-1 (P11309 whole entry): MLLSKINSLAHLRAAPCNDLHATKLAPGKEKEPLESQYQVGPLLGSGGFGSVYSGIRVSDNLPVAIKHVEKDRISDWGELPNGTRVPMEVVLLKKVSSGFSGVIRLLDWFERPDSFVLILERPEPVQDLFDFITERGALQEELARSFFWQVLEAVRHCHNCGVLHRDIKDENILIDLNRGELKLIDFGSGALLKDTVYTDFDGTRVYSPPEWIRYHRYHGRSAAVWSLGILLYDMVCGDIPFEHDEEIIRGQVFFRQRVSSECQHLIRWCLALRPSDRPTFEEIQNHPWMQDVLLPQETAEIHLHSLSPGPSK
Sequence of ALK tyrosine kinase receptor (Q9UM73 whole entry): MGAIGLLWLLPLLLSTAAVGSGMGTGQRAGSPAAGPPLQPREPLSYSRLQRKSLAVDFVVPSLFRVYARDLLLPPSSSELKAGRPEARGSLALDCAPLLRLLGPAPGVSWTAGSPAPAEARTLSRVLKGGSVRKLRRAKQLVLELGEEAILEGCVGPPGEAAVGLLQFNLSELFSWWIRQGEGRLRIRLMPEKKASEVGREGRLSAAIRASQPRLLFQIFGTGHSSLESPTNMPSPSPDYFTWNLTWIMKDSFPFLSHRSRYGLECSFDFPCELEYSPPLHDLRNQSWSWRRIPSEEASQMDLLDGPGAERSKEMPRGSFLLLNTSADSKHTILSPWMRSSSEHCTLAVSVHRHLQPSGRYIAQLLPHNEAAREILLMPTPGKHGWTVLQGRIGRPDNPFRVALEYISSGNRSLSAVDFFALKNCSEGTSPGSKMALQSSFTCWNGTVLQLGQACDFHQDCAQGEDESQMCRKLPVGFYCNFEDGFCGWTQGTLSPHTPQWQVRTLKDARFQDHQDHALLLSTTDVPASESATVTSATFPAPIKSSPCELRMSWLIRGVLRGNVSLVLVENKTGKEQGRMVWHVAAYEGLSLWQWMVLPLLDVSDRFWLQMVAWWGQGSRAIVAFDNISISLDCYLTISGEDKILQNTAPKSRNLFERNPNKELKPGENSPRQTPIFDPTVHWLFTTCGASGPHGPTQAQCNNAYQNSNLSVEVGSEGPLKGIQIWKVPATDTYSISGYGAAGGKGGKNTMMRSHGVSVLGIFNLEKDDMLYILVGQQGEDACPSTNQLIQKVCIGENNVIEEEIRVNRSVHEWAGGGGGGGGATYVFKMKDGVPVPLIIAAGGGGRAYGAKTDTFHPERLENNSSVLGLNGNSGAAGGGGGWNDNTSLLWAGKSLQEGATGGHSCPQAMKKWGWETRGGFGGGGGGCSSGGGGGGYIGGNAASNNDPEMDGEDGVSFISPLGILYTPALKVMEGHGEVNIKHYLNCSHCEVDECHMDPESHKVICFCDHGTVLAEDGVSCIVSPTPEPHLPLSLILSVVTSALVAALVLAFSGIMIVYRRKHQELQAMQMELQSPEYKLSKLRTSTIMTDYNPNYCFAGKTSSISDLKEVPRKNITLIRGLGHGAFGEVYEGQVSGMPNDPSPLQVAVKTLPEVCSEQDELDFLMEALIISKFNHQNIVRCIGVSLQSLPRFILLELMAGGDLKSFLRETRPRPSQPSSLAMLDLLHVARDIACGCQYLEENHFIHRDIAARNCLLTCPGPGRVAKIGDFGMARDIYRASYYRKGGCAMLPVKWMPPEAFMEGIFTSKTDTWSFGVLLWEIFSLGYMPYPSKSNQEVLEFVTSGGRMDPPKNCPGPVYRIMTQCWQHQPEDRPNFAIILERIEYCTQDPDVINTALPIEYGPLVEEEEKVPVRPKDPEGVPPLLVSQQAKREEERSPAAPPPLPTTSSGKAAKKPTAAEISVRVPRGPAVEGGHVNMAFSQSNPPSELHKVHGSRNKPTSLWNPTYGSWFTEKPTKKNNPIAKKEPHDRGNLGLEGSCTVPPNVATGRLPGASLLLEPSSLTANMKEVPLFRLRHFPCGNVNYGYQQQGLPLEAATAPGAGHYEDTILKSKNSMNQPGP

Ki [1]	Ki [2]	Ki [3]	Ki [4]	Ki [5]	Ki [6]	Ki [8]	Ki [9]	Compound	Ki [7]
> 5.01 µM (inactive)	> 3.16 µM (inactive)	> 3.98 µM (inactive)	> 2.51 µM (inactive)	> 3.16 µM (inactive)	> 3.98 µM (inactive)	> 6.31 µM (inactive)	> 3.16 µM (inactive)	CS(=O)(=O)N(Cc1ccc2[nH]c(=O)c3cccn3c2c1)C1CC1	> 3.16 µM (inactive)
> 6.31 µM (inactive)	> 6.31 µM (inactive)	2.51 µM (active)	> 5.01 µM (inactive)	> 5.01 µM (inactive)	> 6.31 µM (inactive)	1.58 µM (active)	> 6.31 µM (inactive)	CS(=O)(=O)Nc1ccc(Nc2ccc3[nH]nc(N)c3c2)cc1	> 5.01 µM (inactive)
3.98 µM (active)	> 6.31 µM (inactive)	> 3.98 µM (inactive)	> 5.01 µM (inactive)	0.501 µM (active)	> 6.31 µM (inactive)	> 2 µM (inactive)	> 6.31 µM (inactive)	O=C(Nc1n[nH]c2ccc(-c3cn(Cc4ccccc4)nn3)cc12)c1cc(F)ccc1F	0.0501 µM (active)
